Entries after “also recorded” stand apart in the source; their conditions may differ. Square brackets hold non-standard residues; d marks the D form. Primed or numbered codes have the meaning given here. PEG7′ = (PEG)7 moiety; Ava = NCCCCC(=O)O; βAla = NCCC(=O)O
What was measured:
[1] = test system: mice or rat models; assay: Summary of cargo delivery to targeted organ (Table 1); format: in vivo; conditions: cargoes and route (IV, IM, SQ, NB) per peptide as listed in Table 1
From the text: Table 1 lists a summary of cell-penetrating peptides that have been proven successful in delivering various cargo molecules to on or more targeted organ (e.g., by intravenous (IV), intramuscular (IM), or subcutaneous (SQ) administration, or intratraccheal instillation or nebulization (NB)) in mice or rat models.

[2] = test system: 293T cells; assay: Cellular delivery of pGL4 plasmid DNA expressing Luciferase, luciferase expression at 72 hrs; format: cell-based; conditions: for reduction of efficiency / luciferase expression in the presence of serum: complexes incubated 3 hrs in 25% serum prior transfection; for reduction of efficiency / luciferase expression in the presence of serum / reduction of efficiency / luciferase expression in heparan sulfate: pGL4 plasmid; for reduction of efficiency / luciferase expression in heparan sulfate: complexes incubated 3 hrs with heparan sulfate prior transfection
Procedure: FIGS. 2A-2C show luciferase expression in 293T cells treated with ADGN-peptide/pGL4 plasmid DNA complexes. 293T cells cultured in 48 well plates were transfected with ADGN-peptide nanoparticles. ADGN-100, ADGN-106, ADGN-100RI, ADGN-106RI, ADGN-100 Stearyl, ADGN-Hydro1, ADGN-Hydro2, ADGN-Hydro3, ADGN-Hydro4, ADGN-Hydro5, and ADGN-Hydro6 containing 0.17 μg pGL4 plasmid DNA were formed in sterile water, diluted in sterile water containing 5% Sucrose. ADGN-peptide nanoparticles were evaluated prior (FIG. 2A) and after filtration with 0.45 μm PES filters (FIG. 2B). FIG. 2C impact of peGylated ADGN-100 on the transfection efficiency. pGL4 luc plasmid (0.15 μg) were associated to ADGN-100 solution containing 5 to 50% of ADGN-100-PEG or to ADGN-100PEG. ADGN/pGL4 plasmid DNA complexes were incubated for 3 hrs in the presence of either 25% serum or heparan sulfate prior transfection. Luciferase expression was monitored 72 hours post transfection and results were reported as RLU (luminescence):mg of protein.
Complex formation with plasmid DNA. The following protocols were used for the transfection of 2-5 106 Cells or Cells at confluency of about 70-80% cultured in 24 well plates. ADGN peptide/plasmid DNA pGL4 particles were prepared at a 20:1 molar ratio of ADGN-Peptide/pGL4. using (0.2 μg). PGL4 plasmid (0.15 μg) was diluted in 20 μl of sterile water (GIBCO) at room temperature. 10 μl Final Peptide Solution was added to obtain a total volume of 20 μl. The volume was adjusted to 50 μl with sterile water and was mixed gently with vortex 1 min low speed and incubated 30 min at room temperature. Then the volume was made up to 100 μl by adding sterile water containing 5% sucrose, and the solution was mixed gently with vortex 1 min low speed and incubate 5 min at 37° C. and then was proceeded to cell transfection.
(§1) Transfection protocol. Protocol is reported for 24 well plate format. Cells were cultured in Dulbecco's Modified Eagle's Medium (DMEM), supplemented with 2 mM glutamine, 1% antibiotics (streptomycin 10,000 μg/mL, penicillin, 10,000 IU/mL) and 10% (w/v) foetal calf serum (FCS), at 37° C. in a humidified atmosphere containing 5% CO2. 24 well plates seeded with 150,000 cells the day prior to transfection were grown to 50-60% confluence and set up to be at about 70% confluences at the time of transfection. Before transfection, cells were washed twice with DMEM. Cells were then overlaid with 0.1 ml of ADGN-peptide/cargo complex solution containing 0.25 μg mRNA, 0.15 μg plasmid DNA or 10-25 nM siRNA, mixed gently, and incubated for 10 min at 37° C. 0.2 mL of fresh DMEM, were added and cells were incubated for 20 min at 37° C. 1 mL of complete DMEM containing 15% FCS were then added in order to reach a final FCS concentration of 10%, without removing the overlay of ADGN-peptide/cargo complexes. Cells were returned to the incubator (37° C., 5% CO2) and 72 hrs post transfection.
ADGN-peptides were evaluated for cellular delivery of pGL4 plasmid DNA expressing Luciferase in 293T cells. Luc pGL4 plasmid (0.15 μg) in sterile water (GIBCO) were mixed with ADGN-100, ADGN-100RI, ADGN-106, ADGN-106RI, ADGN-100 Stearyl, ADGN-100Hydro1, ADGN-100Hydro2, ADGN-100Hydro4, ADGN-100Hydro3, ADGN-100Hydro5 and ADGN-100Hydro6. ADGN-peptide/mRNA complexes were filtered with 0.45 μm PES filter. In order to evaluate the stability of the ADGN/pGL4 plasmid complexes in high serum and cell culture conditions, the complexes were incubated for 3 hrs in the presence of either 25% serum or heparan sulfate prior transfection, then 293T cells were transfected and Luciferase expression was monitored at 72 hrs.

[3] = test system: A375/Luc cells; assay: Cellular delivery of siRNA targeting Luciferase, luciferase silencing at 48 hrs; format: cell-based; conditions: 50% or 100% ADGN-100 PEG
Procedure: FIGS. 3A-3C show luciferase expression in A375/Luc cells treated with ADGN-peptide/siRNA complexes. A375/Luc cells cultured in 48 well plates were transfected with ADGN-peptide nanoparticles. ADGN-100, ADGN-106, ADGN-100RI, ADGN-106RI, ADGN-100 Stearyl, ADGN-Hydro1, ADGN-Hydro2, ADGN-Hydro3, ADGN-Hydro4, ADGN-Hydro5, ADGN-Hydro6 and ADGN-peptide/ADGN-100PEG 10% nanoparticles containing 10 nM or 25 nM siRNA were formed in sterile water, diluted in sterile water containing 5% Sucrose and filtered with 0.45 μm PES filters. FIG. 3C impact of peGylated ADGN-100 on the transfection efficiency. siRNA Luc (10 nM and 25 nM) were associated to ADGN-100 solution containing 5 to 50% of ADGN-100-PEG or to ADGN-100PEG. ADGN/siRNA complexes were incubated for 3 hrs in the presence of 25% serum prior transfection. Luciferase expression was monitored 48 hours post transfection and results were reported as RLU (luminescence):mg of protein.
Complex formation with siRNA. The following protocols were used for the transfection of 2-5 106 Cells or Cells at confluency of about 70-80% cultured in 24 well plates. ADGN peptide/siRNA Luc particles were prepared at a 20:1 molar ratio of ADGN-Peptide/pGL4. using 20 nM siRNA. The siRNA duplex (10 and 25 nM) was diluted in 20 μl of sterile water (GIBCO) at room temperature. 1.5 or 3 μl of a Final Peptide Solution (55 μM) was added to obtain a total volume of 20 μl. The volume was adjusted to 50 μl with sterile water and was mixed gently with vortex 1 min low speed and incubated 30 min at room temperature. Then the volume was made up to 100 μl by adding sterile water containing 5% sucrose, and the solution was mixed gently with vortex 1 min low speed and incubate 5 min at 37° C. and then was proceeded to cell transfection.
as §1
ADGN-peptides were evaluated for cellular delivery of siRNA duplex targeting Luciferase in A375/Luc cells. siRNA targeting luciferase (10 and 25 nM) in sterile water (GIBCO) were mixed with ADGN-100, ADGN-100RI, ADGN-106, ADGN-106RI, ADGN-100 Stearyl, ADGN-100Hydro1, ADGN-100Hydro2, ADGN-100Hydro4, ADGN-100Hydro3, ADGN-100Hydro5 and ADGN-100Hydro6. ADGN-peptide/siRNA complexes were filtered with 0.45 μm PES filter. In order to evaluate the stability of the ADGN/siRNA complexes in high serum conditions, the complexes were incubated for 3 hrs in the presence of 25% serum, then A375/Luc cells were transfected and Luciferase expression was monitored at 48 hrs.

Substance | Targeted Organ [1] | reduction of efficiency / luciferase expression in the presence of serum [2] | reduction of efficiency / luciferase expression in heparan sulfate [2] | reduction of transfection efficiency [3] [%] | reduction of level of Luciferase expression ([2]; 50% or 100% ADGN-100 PEG, pGL4 plasmid 0.15 μg) [%]
Ac-GYVS-Ava-KWRSALWRWRLWRVRSWSR-NH2 (Ac-GYVS[Ava]KWRSALWRWRLWRVRSWSR-NH2; SMILES CC(=O)NCC(=O)N[C@@H](Cc1ccc(O)cc1)C(=O)N[C@H](C(=O)N[C@@H](CO)C(=O)NCCCCC(=O)N[C@@H](CCCCN)C(=O)N[C@@H](Cc1c[nH]c2ccccc12)C(=O)N[C@@H](CCCNC(=N)N)C(=O)N[C@@H](CO)C(=O)N[C@@H](C)C(=O)N[C@@H](CC(C)C)C(=O)N[C@@H](Cc1c[nH]c2ccccc12)C(=O)N[C@@H](CCCNC(=N)N)C(=O)N[C@@H](Cc1c[nH]c2ccccc12)C(=O)N[C@@H](CCCNC(=N)N)C(=O)N[C@@H](CC(C)C)C(=O)N[C@@H](Cc1c[nH]c2ccccc12)C(=O)N[C@@H](CCCNC(=N)N)C(=O)N[C@H](C(=O)N[C@@H](CCCNC(=N)N)C(=O)N[C@@H](CO)C(=O)N[C@@H](Cc1c[nH]c2ccccc12)C(=O)N[C@@H](CO)C(=O)N[C@@H](CCCNC(=N)N)C(N)=O)C(C)C)C(C)C) [ADGN-100 hydro-4] | Liver/Lung/; also recorded: Kidney/Spleen | do not significantly improved transfection | do not significantly improved transfection |  | 
Ac-YIGSR-Ava-KWRSALWRWRLWRVRSWSR-NH2 (Ac-YIGSR[Ava]KWRSALWRWRLWRVRSWSR-NH2; SMILES CC[C@H](C)[C@H](NC(=O)[C@H](Cc1ccc(O)cc1)NC(C)=O)C(=O)NCC(=O)N[C@@H](CO)C(=O)N[C@@H](CCCNC(=N)N)C(=O)NCCCCC(=O)N[C@@H](CCCCN)C(=O)N[C@@H](Cc1c[nH]c2ccccc12)C(=O)N[C@@H](CCCNC(=N)N)C(=O)N[C@@H](CO)C(=O)N[C@@H](C)C(=O)N[C@@H](CC(C)C)C(=O)N[C@@H](Cc1c[nH]c2ccccc12)C(=O)N[C@@H](CCCNC(=N)N)C(=O)N[C@@H](Cc1c[nH]c2ccccc12)C(=O)N[C@@H](CCCNC(=N)N)C(=O)N[C@@H](CC(C)C)C(=O)N[C@@H](Cc1c[nH]c2ccccc12)C(=O)N[C@@H](CCCNC(=N)N)C(=O)N[C@H](C(=O)N[C@@H](CCCNC(=N)N)C(=O)N[C@@H](CO)C(=O)N[C@@H](Cc1c[nH]c2ccccc12)C(=O)N[C@@H](CO)C(=O)N[C@@H](CCCNC(=N)N)C(N)=O)C(C)C) [ADGN-100-Hydro-3] | Tumor/Lung | do not significantly improved transfection | do not significantly improved transfection |  | 
Ac-(PEG)7-βA-KWRSALWRWRLWRVRSWSR-NH2 ({Ac-PEG7′}-[βAla]KWRSALWRWRLWRVRSWSR-NH2) [ADGN-100-PEG7] |  |  |  | 80 | 80

Reference: patent US12357695B2, “Peptides and nanoparticles for intracellular delivery of molecules” (AADIGEN, LLC, priority 2019, dated 2025)
